Measurements as given in US20100184803A1, “Treatment of Lysosomal Storage Diseases” (priority 2007, published 2010).
Entries after “also recorded” stand apart in the source; their conditions may differ.

Key:
UCH-L1 [1] = assay: Total amount and turnover of UCH-L1 in SH-SY5Y cells (pulse-chase, not shown); assay type: cell-based
UCH-L1 [2] = assay: Membrane association of UCH-L1 in SH-SY5Y cells (membrane fractionation, 2D electrophoresis, Western blotting); assay type: cell-based; conditions: compared to cells treated with DMSO
Method: Membrane fractionation: Cells were harvested by scraping and washed with PBS. Cell pellet was suspended in lysis buffer (50 mM Tris-HCl, 1 mM EDTA) supplemented with protease inhibitor cocktail (Sigma) and homogenized by passing through 26G needles 10 times. Suspension was clarified by spinning at 600 g for 5 minutes. Clarified suspension was ultracentrifuged at 100,000 g for 2 hours and separated into membrane and cytosol. Membrane fraction was washed with washing buffer (50 mM Tris-HCl, 1 mM EDTA 1 M NaCl), and pelleted each time with bench-top centrifuge.
2D electrophoresis: For the isolation of total cellular protein, cultured SH-SY5Y cells maintained as described above were rinsed with ice-cold PBS. Cells were lysed in 1 ml dSDS buffer (50 mM Tris-HCl, pH 8.0 0.1% SDS) supplemented with protease inhibitor cocktail. Lysates were boiled for 3 min, and were treated with Dnase and Rnase as described. […]
Western Blotting: Following transfer of SDS gels onto NC membrane, all membranes were blocked with 5% non-fat milk in TBST (50 mM Tris-HCl pH 7.4, 150 mM NaCl, 0.1% Tween 20), and incubated with primary antibody overnight with 1% BSA in TBST, washed three times with TBST, and incubated with horseradish peroxidase-conjugated secondary antibody for 1 hour (Promega). Bound antibodies were detected using enhanced chemiluminascence (NEM).

COC(=O)[C@H](CCSC)NC(=O)c1ccc(NC[C@@H](N)CS)cc1-c1ccccc1 [FTI-277]
total amount of UCH-L1 (UCH-L1 [1]): reduced | rate of turnover of UCH-L1 (UCH-L1 [1]; pulse-chase experiment not shown): increased | amount of cytosolic UCH-L1 (UCH-L1 [2]): without affecting | amount of membrane bound UCH-L1 (membrane-associated, farnesylated species) (UCH-L1 [2]): significant decrease; also recorded: decreased; also recorded: reducing
